# Reference: patent US20080287398A1, “COLD MENTHOL RECEPTOR-1 ANTAGONISTS” (priority 2007, published 2008)
# pIC50: −log10 of the molar value.
# What was measured:
# Male Sprague Dawley rats = assay: Inhibition of icilin-induced wet-dog shakes in rats; assay type: in vivo; conditions: rat, 15′ pre icilin
# rats = assay: Reversal of icilin-induced behaviors (wet-dog shakes) in rats; assay type: in vivo; conditions: rat, 1 h post-icilin
# Experimental: In this paradigm, icilin-induced shaking was counted for 10 minutes followed by administration of a compound of Formula (I). The diminution of shaking behavior is represented as a percent inhibition relative to icilin-induced shakes in the absence of test compound administration, as described by the following formula: % Inhibition=[1−(WDS count following test compound dose/WDS count prior to test compound dose)]×100.
# human TRPM8 = molecular target: T1, human TRPM8 (Homo sapiens, UniProt Q7Z2W7); assay: In vitro human TRPM8 functional assay (Ca2+ dye, FDSS, 100 nM icilin); assay type: cell-based; conditions: HEK293 cells transiently transfected with human TRPM8, read-out: hTRPM8 IC50
# T1 construct: the full-length cDNAs encoding human and rat TRPM8 were subcloned; expressed in transfected cells; host or cells: HEK293 (transient, FuGENE 6, pCI-NEO vector)
# Experimental: For functional expression of TRPM8, the full-length cDNAs encoding human and rat TRPM8 were subcloned into pCl-NEO mammalian expression vectors. The expression constructs were transiently transfected into HEK293 cells according to the FuGENE 6 transfection reagent® (ROCHE) instructions. HEK293 cells were routinely grown as monolayers in Dulbecco's minimum essential medium supplemented with 10% FBS, 1 mM L-glutamine, 100 units/mL penicillin and 100 ug/mL streptomycin. Cells were maintained in 5% CO2 at 37° C. […] Following incubation, plates were inserted into a FDSS instrument, where cells were challenged with a compound of Formula (I) (at varying concentrations) and intracellular Ca^2+ was measured for 5 min prior to the addition of 100 nM icilin. IC50 values for compounds of the present invention were determined from eight-point dose-response studies
# Maximal fluorescence intensity (FI) achieved upon addition of icilin was exported from the FDSS and further analyzed using GraphPad Prism 3.02 (Graph Pad Software Inc., CA, U.S.A.). […] The dose response curves from the average of quadruplicate wells for each data point were analyzed by using nonlinear regression of either sigmoidal dose response or sigmoidal dose response (variable slope). Finally, the IC50 values were calculated with the best-fit dose curve determined by Prism.
# male SD rats = assay: Chronic constriction injury (CCI) model of neuropathic pain, acetone-induced hypersensitivity; assay type: in vivo; conditions: rat; for ED50: po
# Experimental: Through the mesh floor a series of five applications of acetone (0.05 mL/application) was sprayed onto the bottom of the paw using a multidose syringe device. A positive response took the form of an abrupt withdrawal or lifting of the paw. The percentage of positive responses from the five trials represented the individual's overall response that was then averaged over the entire treatment group. […] An ascending dose response relationship (as in Table 10 below) was generated by addition of successive doses of test compound followed by re-assessment of behavior.
# mice = assay: CFA-induced paw cold hypersensitivity (acetone-evoked paw licking); assay type: in vivo; conditions: mouse; 60 mg/kg p.o.; time 30′; acetone licking duration vs vehicle
# Experimental: Prior to intraplantar CFA injection mice were placed individually in elevated observation chambers having wire mesh floors. Through the mesh floor a series of three applications of acetone (0.04 mL/application) was sprayed onto the bottom of the paw using a multidose syringe device. A positive response took the form of an abrupt withdrawal and licking of the paw. The cumulative duration of licking was recorded for each of the three trials which were then averaged to give the individual's response. Twenty-four hours following CFA injection acetone licking durations were markedly elevated implying a hypersensitivity to cooling. A test compound of Formula (I) was assessed for its ability to return acetone-evoked paw licking durations to pre-CFA levels (typically near zero) following systemic administration. Percent inhibition was calculated % inhibition=[1−(treatment licking duration/vehicle licking duration)]×100.
# Male Sprague-Dawley rats = assay: Cold pressor test in anesthetized rat; assay type: in vivo; conditions: 6 mg/kg i.v., time 10′, mean arterial pressure change on forelimb ice
# Experimental: Compounds of Formula (I) can be tested in animals and humans for their ability to mitigate cardiovascular pressor responses evoked by cold exposure. The clinical cold pressor test assesses changes in blood pressure (BP) and cold pain perception during a 2-3 minute immersion of one hand into ice water. This test may be utilized to characterize analgesic compounds (Koltzenberg M et al. Pain. 2006, 126(1-3): 165-74) and to assess cold hypersensitivity (Desmeules J A et al. Arthritis Rheum. 2003, 48(5): 1420-9). A compound of Formula (I) was studied in an anesthetized rat cold pressor paradigm to determine whether TRPM8 antagonism would interfere with the blood pressure pressor response to cold stimulation of the forepaws. Male Sprague-Dawley rats (300-450 g) anesthetized with sodium pentobarbital were instrumented with a jugular catheter and an indwelling carotid artery pressure transducer. Vehicle (10% Solutol in water) or test compound was infused (1 mL/kg) over one minute through the intravenous catheter. […] Percent changes in mean arterial pressure in response to this cold stimulus were calculated for vehicle and test compound pretreatments. Percent inhibition attributed to treatment with test compound was then determined using the following formula: % Inhibition=[1−(cold evoked % change in BP post-test compound/cold evoked % change in BP post-vehicle)]×100.
# T1 sequence (Q7Z2W7 whole entry): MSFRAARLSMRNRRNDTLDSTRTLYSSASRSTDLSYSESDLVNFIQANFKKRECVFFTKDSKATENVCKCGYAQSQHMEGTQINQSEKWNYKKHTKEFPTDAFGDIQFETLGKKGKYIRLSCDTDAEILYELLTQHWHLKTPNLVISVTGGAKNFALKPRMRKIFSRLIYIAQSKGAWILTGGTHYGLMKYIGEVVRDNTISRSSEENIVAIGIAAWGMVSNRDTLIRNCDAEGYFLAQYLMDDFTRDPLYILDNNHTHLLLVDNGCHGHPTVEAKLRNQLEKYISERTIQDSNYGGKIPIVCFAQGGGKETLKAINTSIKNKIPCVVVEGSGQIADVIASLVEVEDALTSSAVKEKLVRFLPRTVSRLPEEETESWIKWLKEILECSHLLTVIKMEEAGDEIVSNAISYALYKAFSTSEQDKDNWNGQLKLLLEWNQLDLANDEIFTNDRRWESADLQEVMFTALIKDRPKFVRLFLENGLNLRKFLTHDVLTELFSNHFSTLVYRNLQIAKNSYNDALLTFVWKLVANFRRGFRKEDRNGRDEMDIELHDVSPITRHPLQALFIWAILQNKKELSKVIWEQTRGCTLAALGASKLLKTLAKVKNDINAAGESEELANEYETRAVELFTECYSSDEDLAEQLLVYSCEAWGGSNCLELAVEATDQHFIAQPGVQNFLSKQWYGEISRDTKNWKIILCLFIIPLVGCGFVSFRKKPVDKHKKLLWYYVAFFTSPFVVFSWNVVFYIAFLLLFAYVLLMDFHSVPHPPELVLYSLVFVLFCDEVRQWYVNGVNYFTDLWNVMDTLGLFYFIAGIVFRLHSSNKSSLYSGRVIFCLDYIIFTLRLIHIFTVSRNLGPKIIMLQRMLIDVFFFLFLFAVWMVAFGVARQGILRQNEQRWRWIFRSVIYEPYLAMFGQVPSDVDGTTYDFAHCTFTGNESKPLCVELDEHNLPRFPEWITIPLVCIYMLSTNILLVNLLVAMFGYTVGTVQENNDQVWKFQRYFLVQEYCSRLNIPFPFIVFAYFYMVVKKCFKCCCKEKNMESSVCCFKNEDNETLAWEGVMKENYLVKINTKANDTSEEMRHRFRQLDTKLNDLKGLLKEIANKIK
smiles,measurement,setting,value
"CC(C)OP(=O)(OC(C)C)[C@@H](Cc1ccc(F)c(F)c1)c1sc2ccccc2c1Br [Cpd 234, (S)-[1-(3-Bromo-benzo[b]thiophen-2-yl)-2-(3,4-difluoro-phenyl)-ethyl]-phosphonic acid diisopropyl ester]",ED50,Male Sprague Dawley rats; po,24.3 mg/kg
same,% Inhibition,Male Sprague Dawley rats; 10 mg/kg p.o.,14.2%
same,% Inhibition,Male Sprague Dawley rats; 30 mg/kg p.o.,68.0%
same,% Inhibition,Male Sprague Dawley rats; 100 mg/kg p.o.,92.9%
same,ED50,rats; po,28.5 mg/kg
same,% Inhibition,rats; 10 mg/kg p.o.,24.4%
same,% Inhibition,rats; 30 mg/kg p.o.,56.1%
same,% Inhibition,rats; 100 mg/kg p.o.,75.1%
same,pIC50,human TRPM8,10.27
same,ED50,male SD rats; preRx 1 hr,14.8 mg/kg
same,% of Allodynic Baseline,"male SD rats; 3 mg/kg p.o., preRx 1 hr",16.7%
same,% of Allodynic Baseline,"male SD rats; 3 mg/kg p.o., preRx 2 hr",10.0%
same,% of Allodynic Baseline,"male SD rats; 10 mg/kg p.o., preRx 1 hr",51.7%
same,% of Allodynic Baseline,"male SD rats; 30 mg/kg p.o., preRx 1 hr",59.6%
same,% of Allodynic Baseline,"male SD rats; 30 mg/kg p.o., preRx 2 hr",56.7%
same,% of Allodynic Baseline,"male SD rats; 100 mg/kg p.o., preRx 1 hr",83.1%
same,% of Allodynic Baseline,"male SD rats; 100 mg/kg p.o., preRx 2 hr",93.3%
"CC(C)OP(=O)(OC(C)C)[C@@H](Cc1ccc(F)c(C(F)(F)F)c1)c1sc2ccccc2c1Br [Cpd 242, (S)-[1-(3-Bromo-benzo[b]thiophen-2-yl)-2-(4-fluoro-3-trifluoromethyl-phenyl)-ethyl]-phosphonic acid diisopropyl ester]",% Inhibition,rats; 30 mg/kg p.o.,79.9%
same,pIC50,human TRPM8,10.31
same,% I,mice,84%
same,ED50,male SD rats; preRx 3 hr,18 mg/kg
same,% of Allodynic Baseline,"male SD rats; 3 mg/kg p.o., preRx 3 hr",15.0%
same,% of Allodynic Baseline,"male SD rats; 10 mg/kg p.o., preRx 3 hr",30.0%
same,% of Allodynic Baseline,"male SD rats; 30 mg/kg i.p., preRx 2 hr",63.3%
same,% of Allodynic Baseline,"male SD rats; 30 mg/kg p.o., preRx 3 hr",66.7%
same,% of Allodynic Baseline,"male SD rats; 100 mg/kg p.o., preRx 3 hr",86.7%
same,% I (inhibition of cold-induced pressor response),Male Sprague-Dawley rats,54%
